pEC50: −log10 of the molar value.
Target: T1, CBI receptor (Rattus norvegicus, UniProt P20272)
T1 construct: Preparation of CBI receptor membrane protein in cerebellum of rat; from tissue; host or cells: Wistar rat cerebellum membranes
Test: Drug and CBI receptor competition binding experiment (rat cerebellum membrane protein)
Conditions: CBI receptor membrane protein from Wistar rat cerebellum; 30° C. for 1 hour; 1×10^−7 to 1×10^−11 mole concentration; read-out: antagonistic concentration of 50% (EC50) to CBI receptor
Procedure: 2.1 Preparation of CBI receptor membrane protein in cerebellum of rat: Wistar rat, 220-260 g, female and male being not limited, was killed by cutting head, its cerebellum was separated rapidly, weighted and added to a buffer of Tris-HCl in 10 times of volume (50 mM, Tris HCl, 5 mM MgCl2.6H2O, 1 mM EDTA, 0.5% (W/V) BSA, pH 7.4), homogenized by using homogenizer at 15000 rpm/min, 30 seconds once, 5 times in total. The homogenized liquid was centrifuged at 400×g for 10 minutes, the supernatant was centrifuged at 39000×g for 10 minutes, the precipitate was collected, re-suspended with Tris-HCl buffer of pH 7.4 in 10 times of volume of the original weight, and centrifuged at 39000×g for 10 minutes, the precipitate was washed with the same buffer, and centrifuged at 39000×g for 10 minutes, the resultant precipitate was washed with Tris-HCl. […]
100 μg of receptor protein, 20 μl of the compound in Example 1 in mole concentration of 1×10^−7, 1×10^−8, 1×10^−9, 1×10^−10 and 1×10^−11, respectively were added successively, reacted at 30° C. for 1 hour, the sample was spotted on glass fiber filtration membrane, filtrated under negative pressure, washed with cold buffer for 10 times, 2 ml per time, the filtration membrane was unwatered, dried over oven, and placed in scintillation bottle, added 1 ml scintillating liquid, the radioactivity strength was detected by LS6500 scintillation counter.

T1 sequence (P20272 whole entry): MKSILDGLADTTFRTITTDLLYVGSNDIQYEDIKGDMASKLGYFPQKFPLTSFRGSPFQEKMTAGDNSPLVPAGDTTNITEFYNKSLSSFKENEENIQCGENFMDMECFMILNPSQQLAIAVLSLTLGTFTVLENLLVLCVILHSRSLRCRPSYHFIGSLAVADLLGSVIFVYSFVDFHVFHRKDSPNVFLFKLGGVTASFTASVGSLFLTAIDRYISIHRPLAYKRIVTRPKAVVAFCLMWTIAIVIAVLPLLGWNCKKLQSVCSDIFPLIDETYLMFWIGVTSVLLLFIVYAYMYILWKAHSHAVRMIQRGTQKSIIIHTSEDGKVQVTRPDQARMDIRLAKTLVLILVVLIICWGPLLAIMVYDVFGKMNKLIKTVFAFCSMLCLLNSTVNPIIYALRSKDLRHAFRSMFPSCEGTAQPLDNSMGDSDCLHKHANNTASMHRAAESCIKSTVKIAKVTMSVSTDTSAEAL

Cc1c(C(=O)NCc2cccnc2)nn(-c2ccc(Cl)cc2Cl)c1-c1ccc(Cl)cc1 [Example 1, N-(3-aminomethyl-pyridyl)-5-(4-chlorophenyl)-1-(2,4-dichlorophenyl)-4-methyl pyrazol-3-carboxamide]
pEC50: 9.89

— US8030323B2, “Pyrazole carboxamide derivatives, pharmaceutical compositions and its preparation” (Beijing Molecule Science and Technology Co., Ltd., priority 2006, dated 2011)
